{
  "source": "patent US20260285850A1",
  "about": "“SUBSTITUTED OXAZOLIDINONES AND IMIDAZOLINONES AS HERBICIDES” (FMC CORPORATION, priority 2023, published 2026)",
  "assay_type_in_all_cases": "in vivo",
  "key": {"[1]": {"system": "blackgrass (Alopecurus myosuroides)", "experiment": "Test A postemergence application, visual injury rating 0-100", "summary_of_the_method": "(§1)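 Directed preemergence spray onto seeded soil or postemergence spray onto 2-10 cm plants (loam plus sand); compound carried in surfactant-containing non-phytotoxic solvent. Injury rated by eye after 10 d greenhouse growth; 0 = no effect, 100 = complete control.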"}, "[2]": {"system": "galium (catchweed bedstraw, Galium aparine)", "experiment": "Test A postemergence application, visual injury rating 0-100", "summary_of_the_method": "as §1"}, "[3]": {"system": "oat, wild (wild oat, Avena fatua)", "experiment": "Test A postemergence application, visual injury rating 0-100", "summary_of_the_method": "as §1"}, "[4]": {"system": "green foxtail (Setaria viridis)", "experiment": "Test A postemergence application, visual injury rating 0-100", "summary_of_the_method": "as §1"}, "[5]": {"system": "barnyardgrass (Echinochloa crus-galli)", "experiment": "Test A postemergence application, visual injury rating 0-100", "summary_of_the_method": "as §1"}, "[6]": {"system": "wheat (Triticum aestivum)", "experiment": "Test A postemergence application, visual injury rating 0-100", "summary_of_the_method": "as §1"}, "corn (Zea mays) [7]": {"system": "corn (Zea mays)", "experiment": "Test A postemergence application, visual injury rating 0-100", "summary_of_the_method": "as §1"}, "soybean (Glycine max) [8]": {"system": "soybean (Glycine max)", "experiment": "Test A postemergence application, visual injury rating 0-100", "summary_of_the_method": "as §1"}, "[9]": {"system": "ragweed (common ragweed, Ambrosia artemisiifolia)", "experiment": "Test A postemergence application, visual injury rating 0-100", "summary_of_the_method": "as §1"}, "[10]": {"system": "horseweed (Erigeron canadensis)", "experiment": "Test A postemergence application, visual injury rating 0-100", "summary_of_the_method": "as §1"}, "[11]": {"system": "ryegrass, Italian (italian ryegrass, Lolium multiflorum)", "experiment": "Test A postemergence application, visual injury rating 0-100", "summary_of_the_method": "as §1"}, "[12]": {"system": "palmer (palmer amaranth, palmer pigweed, Amaranthus palmeri)", "experiment": "Test A postemergence application, visual injury rating 0-100", "summary_of_the_method": "as §1"}, "kochia (Bassia scoparia) [13]": {"system": "kochia (Bassia scoparia)", "experiment": "Test A postemergence application, visual injury rating 0-100", "summary_of_the_method": "as §1"}, "rice (Oryza sativa)": {"system": "rice (Oryza sativa)", "experiment": "Test B flooded paddy test, visual plant response rating 0-100", "settings": "250 g ai/ha, Flood, applied to paddy water, evaluated after 13 days", "summary_of_the_method": "(§2)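 Visual scores versus untreated controls were recorded 13 days after treatment of greenhouse-held plants. At the 2-leaf stage, pots were flooded 3 cm above the soil surface and compounds added straight to the water.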"}, "[14]": {"system": "ducksalad (Heteranthera limosa)", "experiment": "Test B flooded paddy test, visual plant response rating 0-100", "settings": "250 g ai/ha, Flood, applied to paddy water, evaluated after 13 days", "summary_of_the_method": "as §2"}, "[15]": {"system": "sedge, umbrella (small-flower umbrella sedge, Cyperus difformis)", "experiment": "Test B flooded paddy test, visual plant response rating 0-100", "settings": "250 g ai/ha, Flood, applied to paddy water, evaluated after 13 days", "summary_of_the_method": "as §2"}, "[16]": {"system": "barnyardgrass (Echinochloa crusgalli)", "experiment": "Test B flooded paddy test, visual plant response rating 0-100", "settings": "250 g ai/ha, Flood, applied to paddy water, evaluated after 13 days", "summary_of_the_method": "as §2"}, "[17]": {"system": "blackgrass (Alopecurus myosuroides)", "experiment": "Test A preemergence soil spray, visual injury rating 0-100", "settings": "10 days", "summary_of_the_method": "as §1"}, "[18]": {"system": "oat, wild (wild oat, Avena fatua)", "experiment": "Test A preemergence soil spray, visual injury rating 0-100", "settings": "10 days", "summary_of_the_method": "as §1"}, "[19]": {"system": "green foxtail (Setaria viridis)", "experiment": "Test A preemergence soil spray, visual injury rating 0-100", "settings": "10 days", "summary_of_the_method": "as §1"}, "[20]": {"system": "barnyardgrass (Echinochloa crus-galli)", "experiment": "Test A preemergence soil spray, visual injury rating 0-100", "settings": "10 days", "summary_of_the_method": "as §1"}, "[21]": {"system": "wheat (Triticum aestivum)", "experiment": "Test A preemergence soil spray, visual injury rating 0-100", "settings": "10 days", "summary_of_the_method": "as §1"}, "corn (Zea mays) [22]": {"system": "corn (Zea mays)", "experiment": "Test A preemergence soil spray, visual injury rating 0-100", "settings": "10 days", "summary_of_the_method": "as §1"}, "soybean (Glycine max) [23]": {"system": "soybean (Glycine max)", "experiment": "Test A preemergence soil spray, visual injury rating 0-100", "settings": "10 days", "summary_of_the_method": "as §1"}, "[24]": {"system": "ragweed (common ragweed, Ambrosia artemisiifolia)", "experiment": "Test A preemergence soil spray, visual injury rating 0-100", "settings": "10 days", "summary_of_the_method": "as §1"}, "[25]": {"system": "ryegrass, Italian (italian ryegrass, Lolium multiflorum)", "experiment": "Test A preemergence soil spray, visual injury rating 0-100", "settings": "10 days", "summary_of_the_method": "as §1"}, "[26]": {"system": "palmer (palmer amaranth, palmer pigweed, Amaranthus palmeri)", "experiment": "Test A preemergence soil spray, visual injury rating 0-100", "settings": "10 days", "summary_of_the_method": "as §1"}, "kochia (Bassia scoparia) [27]": {"system": "kochia (Bassia scoparia)", "experiment": "Test A preemergence soil spray, visual injury rating 0-100", "settings": "10 days", "summary_of_the_method": "as §1"}, "[28]": {"settings": "62 g ai/ha, postemergence, 10 days, 0 = no effect, 100 = complete control"}, "[29]": {"settings": "Postemergence, 16 g ai/ha, greenhouse 10 days, 0 no effect, 100 complete control"}, "[30]": {"settings": "62 g ai/ha, 0 = no effect, 100 = complete control"}},
  "data": [
    {"smiles": "CC1(C(=O)NC2C=CC(C(=O)O)C2)CN(c2cc(F)cc(F)c2)C(=O)O1", "note": "(stereo not shown) [Compound 131]", "values": [
      {"measurement": "Blackgrass plant response rating (0-100)", "setting": "[1]; [28]", "value": 90},
      {"measurement": "Blackgrass plant response rating (0 to 100 scale)", "setting": "[1]; [29]", "value": 90},
      {"measurement": "Galium plant response rating (0-100)", "setting": "[2]; [28]", "value": 90},
      {"measurement": "Galium plant response rating (0 to 100 scale)", "setting": "[2]; [29]", "value": 70},
      {"measurement": "Oat, Wild plant response rating (0-100)", "setting": "[3]; [28]", "value": 90},
      {"measurement": "Oat, Wild plant response rating (0 to 100 scale)", "setting": "[3]; [29]", "value": 90},
      {"measurement": "Foxtail, Green plant response rating (0-100)", "setting": "[4]; [28]", "value": 90},
      {"measurement": "Foxtail, Green plant response rating (0 to 100 scale)", "setting": "[4]; [29]", "value": 30},
      {"measurement": "Barnyardgrass plant response rating (0-100)", "setting": "[5]; [28]", "value": 100},
      {"measurement": "Barnyardgrass plant response rating (0 to 100 scale)", "setting": "[5]; [29]", "value": 90},
      {"measurement": "Wheat plant response rating (0-100)", "setting": "[6]; [28]", "value": 90},
      {"measurement": "Wheat plant response rating (0 to 100 scale)", "setting": "[6]; [29]", "value": 90},
      {"measurement": "Corn plant response rating (0-100)", "setting": "corn (Zea mays) [7]; [28]", "value": 100},
      {"measurement": "Corn plant response rating (0 to 100 scale)", "setting": "corn (Zea mays) [7]; [29]", "value": 50},
      {"measurement": "Soybean plant response rating (0-100)", "setting": "soybean (Glycine max) [8]; [28]", "value": 80},
      {"measurement": "Soybean plant response rating (0 to 100 scale)", "setting": "soybean (Glycine max) [8]; [29]", "value": 80},
      {"measurement": "Ragweed plant response rating (0-100)", "setting": "[9]; [28]", "value": 70},
      {"measurement": "Ragweed plant response rating (0 to 100 scale)", "setting": "[9]; [29]", "value": 0},
      {"measurement": "Horseweed plant response rating (0-100)", "setting": "[10]; [28]", "value": 80},
      {"measurement": "Horseweed plant response rating (0 to 100 scale)", "setting": "[10]; [29]", "value": 40},
      {"measurement": "Ryegrass, Italian plant response rating (0-100)", "setting": "[11]; [28]", "value": 90},
      {"measurement": "Ryegrass, Italian plant response rating (0 to 100 scale)", "setting": "[11]; [29]", "value": 10},
      {"measurement": "Pigweed, Palmer plant response rating (0-100)", "setting": "[12]; [28]", "value": 80},
      {"measurement": "Pigweed, Palmer plant response rating (0 to 100 scale)", "setting": "[12]; [29]", "value": 20},
      {"measurement": "Kochia plant response rating (0-100)", "setting": "kochia (Bassia scoparia) [13]; [28]", "value": 50},
      {"measurement": "Kochia plant response rating (0 to 100 scale)", "setting": "kochia (Bassia scoparia) [13]; [29]", "value": 20},
      {"measurement": "Plant response rating, Rice (0 to 100 scale, 0 is no effect and 100 is complete control)", "setting": "rice (Oryza sativa)", "value": 70},
      {"measurement": "Plant response rating, Ducksalad (0 to 100 scale, 0 is no effect and 100 is complete control)", "setting": "[14]", "value": 80},
      {"measurement": "Plant response rating, Sedge, Umbrella (0 to 100 scale, 0 is no effect and 100 is complete control)", "setting": "[15]", "value": 95},
      {"measurement": "Plant response rating, Barnyardgrass (0 to 100 scale, 0 is no effect and 100 is complete control)", "setting": "[16]", "value": 95},
      {"measurement": "Blackgrass plant response rating", "setting": "[17]; 16 g ai/ha, 0 to 100 scale", "value": 30},
      {"measurement": "Blackgrass plant response rating (0-100)", "setting": "[17]; [30]", "value": 90},
      {"measurement": "Oat, Wild plant response rating", "setting": "[18]; 16 g ai/ha, 0 to 100 scale", "value": 0},
      {"measurement": "Oat, Wild plant response rating (0-100)", "setting": "[18]; [30]", "value": 60},
      {"measurement": "Foxtail, Green plant response rating", "setting": "[19]; 16 g ai/ha, 0 to 100 scale", "value": 0},
      {"measurement": "Foxtail, Green plant response rating (0-100)", "setting": "[19]; [30]", "value": 100},
      {"measurement": "Barnyardgrass plant response rating", "setting": "[20]; 16 g ai/ha, 0 to 100 scale", "value": 0},
      {"measurement": "Barnyardgrass plant response rating (0-100)", "setting": "[20]; [30]", "value": 80},
      {"measurement": "Wheat plant response rating", "setting": "[21]; 16 g ai/ha, 0 to 100 scale", "value": 30},
      {"measurement": "Wheat plant response rating (0-100)", "setting": "[21]; [30]", "value": 90},
      {"measurement": "Corn plant response rating", "setting": "corn (Zea mays) [22]; 16 g ai/ha, 0 to 100 scale", "value": 10},
      {"measurement": "Corn plant response rating (0-100)", "setting": "corn (Zea mays) [22]; [30]", "value": 80},
      {"measurement": "Soybean plant response rating", "setting": "soybean (Glycine max) [23]; 16 g ai/ha, 0 to 100 scale", "value": 0},
      {"measurement": "Soybean plant response rating (0-100)", "setting": "soybean (Glycine max) [23]; [30]", "value": 80},
      {"measurement": "Ragweed plant response rating", "setting": "[24]; 16 g ai/ha, 0 to 100 scale", "value": 0},
      {"measurement": "Ragweed plant response rating (0-100)", "setting": "[24]; [30]", "value": 10},
      {"measurement": "Ryegrass, Italian plant response rating", "setting": "[25]; 16 g ai/ha, 0 to 100 scale", "value": 0},
      {"measurement": "Ryegrass, Italian plant response rating (0-100)", "setting": "[25]; [30]", "value": 90},
      {"measurement": "Pigweed, Palmer plant response rating", "setting": "[26]; 16 g ai/ha, 0 to 100 scale", "value": 0},
      {"measurement": "Pigweed, Palmer plant response rating (0-100)", "setting": "[26]; [30]", "value": 80},
      {"measurement": "Kochia plant response rating", "setting": "kochia (Bassia scoparia) [27]; 16 g ai/ha, 0 to 100 scale", "value": 0},
      {"measurement": "Kochia plant response rating (0-100)", "setting": "kochia (Bassia scoparia) [27]; [30]", "value": 90}
    ]}
  ]
}
